The record followed here is patent US20260193179A9 (priority 2018, published 2026).

SMILES strings stand for the structures. Structures can show the parent of a compound that is named as a salt. Where two headings read alike, the source gives them in different places.

For assay [1], the system named is Lectin Pathway. Kind of assay: Lectin Pathway Activation Assay in Human Serum (mannan-coated ELISA, C3c detection). The format is biochemical. The note with it: 1% human serum. How it is done: Microtiter ELISA plate was coated with mannan from Saccharomyces cerevisiae (Sigma-Aldrich, M7504) for overnight at 4° C. in coating buffer [15 mM Na2CO3, 35 mM NaHCO3]. Plate was blocked with 1% bovine serum albumin (BSA) (Sigma-Aldrich, A3294) in Tris-buffered Saline (TBS) [10 mM Tris-HCl, 140 mM NaCl] for 2 hours at room temperature. […] 100 μL of this mixture were then added to the plate and plate was incubated at 37° C. for up to an hour with gentle shaking, 200 rpm. After that, plate was washed thrice in wash buffer [TBS containing 5 mM CaCl2) and 0.05% Tween-20] and 100 μL of rabbit anti human C3c (Dako, A0062) diluted 1:5000 in wash buffer were added and incubated at 37° C. for 30 minutes.
Background: An ELISA detects its analyte on a solid surface through an enzyme-linked reagent.

In assay [2] the test system is MASP-2 (CCP1-CCP2-SP). Kind of assay: Enzymatic Assay for MASP-2 (fluorogenic substrate). In kind it is biochemical, human. The settings on record: selectivity for MASP-2 inhibition versus thrombin.
Assay [3] addresses human α-thrombin (Homo sapiens, UniProt P00734). Description: Enzymatic Assay for Thrombin (Boc-VPR-AMC substrate). The format is biochemical.
Assay [4] deals with MASP-2 (CCP1-CCP2-SP) (Homo sapiens, UniProt O00187). Description: Enzymatic Assay for MASP-2 (fluorogenic substrate). The format is biochemical.
Assay [5] has as its target mMASP-2 (Mus musculus, UniProt Q91WP0). Kind of assay: Enzymatic assay for mMASP-2. The format is biochemical.
Where [6] appears, read: human α-thrombin, Boc-VPR-AMC substrate.

Sequence of mMASP-2 (Q91WP0 20-685): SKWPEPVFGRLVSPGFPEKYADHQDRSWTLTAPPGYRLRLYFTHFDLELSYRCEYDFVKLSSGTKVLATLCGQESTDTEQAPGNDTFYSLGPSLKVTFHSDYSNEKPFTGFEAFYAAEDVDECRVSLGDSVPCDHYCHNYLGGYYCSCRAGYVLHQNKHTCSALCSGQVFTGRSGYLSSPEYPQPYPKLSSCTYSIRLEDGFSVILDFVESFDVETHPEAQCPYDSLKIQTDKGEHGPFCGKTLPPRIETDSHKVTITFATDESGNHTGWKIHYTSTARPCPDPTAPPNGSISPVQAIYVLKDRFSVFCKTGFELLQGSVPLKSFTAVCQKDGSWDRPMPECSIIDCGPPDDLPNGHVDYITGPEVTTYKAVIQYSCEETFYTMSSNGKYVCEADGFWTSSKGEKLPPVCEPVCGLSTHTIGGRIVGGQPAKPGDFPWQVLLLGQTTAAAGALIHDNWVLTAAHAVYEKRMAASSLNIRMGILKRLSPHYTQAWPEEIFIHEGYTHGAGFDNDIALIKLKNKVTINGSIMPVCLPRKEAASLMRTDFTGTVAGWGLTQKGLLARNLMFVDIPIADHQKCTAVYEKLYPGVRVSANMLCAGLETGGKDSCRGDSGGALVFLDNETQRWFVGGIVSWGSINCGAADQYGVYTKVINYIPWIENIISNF
Sequence of MASP-2 (CCP1-CCP2-SP) (Homo sapiens, UniProt O00187) (O00187 445-686): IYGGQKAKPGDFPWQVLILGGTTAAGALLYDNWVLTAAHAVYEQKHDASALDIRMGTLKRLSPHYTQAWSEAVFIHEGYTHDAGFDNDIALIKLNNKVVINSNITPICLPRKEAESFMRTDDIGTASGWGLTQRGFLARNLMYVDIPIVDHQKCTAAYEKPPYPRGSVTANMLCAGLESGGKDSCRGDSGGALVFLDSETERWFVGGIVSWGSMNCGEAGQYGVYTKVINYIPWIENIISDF
Sequence of MASP-2 (CCP1-CCP2-SP) (Homo sapiens, UniProt O00187) (O00187 298-444): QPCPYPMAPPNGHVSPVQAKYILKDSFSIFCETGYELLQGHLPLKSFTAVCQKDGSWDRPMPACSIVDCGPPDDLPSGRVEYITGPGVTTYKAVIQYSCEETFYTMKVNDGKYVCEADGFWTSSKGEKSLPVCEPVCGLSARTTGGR

For orientation: IC50 means the point on the concentration scale where inhibition reaches its midpoint. Turning to `Cc1nc(N)ccc1CNC(=O)[C@H](C)NC(=O)[C@H]1C[C@H](Cc2ccc(N3CCCC3=O)cc2)CN1` [compound 1391, (2R,4S)—N—((S)-1-(((6-Amino-2-methylpyridin-3-yl)methyl)amino)-1-oxopropan-2-yl)-4-(4-(2-oxopyrrolidin-1-yl)benzyl)pyrrolidine-2-carboxamide], in assay [1] (mannan-coated plate), the IC50 was in the range of 500 to 5000 nM. In addition, in assay [2], the “MASP-2 vs. thrombin selectivity” value is recorded as “**** (≥100-fold)”.

What is called Ki is the equilibrium dissociation constant of an inhibitor or competing ligand from its target. With `C[C@H](OC(=O)[C@H](N)CCc1ccccc1)C(=O)NCc1ccc(C(=N)N)cc1` [compound 1315, (S)-1-((4-Carbamimidoylbenzyl)amino)-1-oxopropan-2-yl (R)-2-amino-4-phenylbutanoate Hydrochloride], the inhibition constant Ki in assay [3] (setting [6]) fell in the range of 2500 to 10000 nM; in assay [4], 500 to 2500 nM.

Take `Cc1cccc(CNC(=O)[C@H](C)NC(=O)[C@H]2C[C@H](Cc3ccccc3)CN2)c1-n1ncnn1` [compound 1437, (2R,4S)-4-Benzyl-N—((S)-1-((3-methyl-2-(2H-tetrazol-2-yl)benzyl)amino)-1-oxopropan-2-yl)pyrrolidine-2-carboxamide]: the inhibitory constant (Ki) in assay [5] lay within 2500 to 10000 nM.

`C[C@H](NC(=O)[C@H]1C[C@H](c2ccccc2)CN1)C(=O)NCc1ccc(/C(N)=N/O)cc1` [compound 1292] yielded an inhibition constant (Ki) in assay [5] of 10000 to 25000 nM.

`C[C@H](NC(=O)[C@H]1C[C@H](Cc2ccc3ccccc3c2)CN1)C(=O)NCc1cc(Cl)ccc1-n1cnnn1` [compound 1385, (2R,4S)—N—((S)-1-((5-chloro-2-(1H-tetrazol-1-yl)benzyl)amino)-1-oxopropan-2-yl)-4-(naphthalen-2-ylmethyl)pyrrolidine-2-carboxamide] gave a concentration for half-maximal inhibition (IC50) in assay [1] (mannan-coated plate) of 50 to 500 nM. Moreover, the “MASP-2 vs. thrombin selectivity” value in assay [2] was “** (≥5.0 to <25-fold)”.

In turn, `C[C@H](NC(=O)[C@H]1C[C@H](Cc2ccccc2-c2ccccc2)CN1)C(=O)NCc1cnc2[nH]cc(Cl)c2c1` [compound 1393, (2R,4S)-4-([1,1′-Biphenyl]-2-ylmethyl)-N—((S)-1-(((3-chloro-1H-pyrrolo[2,3-b]pyridin-5-yl)methyl)amino)-1-oxopropan-2-yl)pyrrolidine-2-carboxamide] returned an IC50 in assay [1] (mannan-coated plate) of 50 to 500 nM. Besides, the “MASP-2 vs. thrombin selectivity” value in assay [2] is listed as “* (≥1.0 to <5.0-fold)”.

In the case of `C[C@H](NC(=O)[C@H](N)CCc1ccccc1)C(=O)NCc1ccc2c(N)ncnc2c1` [compound 1060, (R)-2-Amino-N—((S)-1-(((4-aminoquinazolin-7-yl)methyl)amino)-1-oxopropan-2-yl)-4-phenylbutanamide Dihydrochloride], the Ki in assay [4] was less than 2500 nM.

Take `C[C@H](NC(=O)[C@H]1C[C@H](c2ccccc2)CN1)C(=O)NCc1ccc2c(N)nccc2c1` [compound 1090]: the Ki in assay [5] was less than 500 nM.

In assay [3] (setting [6]), `Cc1nc(N)ccc1CNC(=O)C(C)NC(=O)[C@H]1C[C@H](c2cccc(-c3ccccc3)c2)CN1` (stereo in doubt) [compound 1359, (2R,4R)-4-([1,1′-Biphenyl]-3-yl)-N—((S)-1-(((6-amino-2-methylpyridin-3-yl)methyl)amino)-1-oxopropan-2-yl)pyrrolidine-2-carboxamide Di-trifluoroacetate salt] gave a Ki of more than 25000 nM.

Consider `C[C@H](NC(=O)[C@H]1Cc2c([nH]c3ccccc23)CN1)C(=O)NCc1ccc(C(=N)N)cc1` [compound 1097], for which, in assay [5], the Ki was less than 500 nM.

For `C[C@H](NC(=O)[C@H](N)CCc1ccccc1)C(=O)NCc1cc(Cl)ccc1-n1cnnn1` [compound 1325, (R)-2-amino-N—((S)-1-((5-chloro-2-(1H-tetrazol-1-yl)benzyl)amino)-1-oxopropan-2-yl)-4-phenylbutanamide], the Ki in assay [5] was in the range of 10000 to 25000 nM.

As for `C[C@H](NC(=O)[C@H](N)CCc1cc(Cl)cc(Cl)c1)C(=O)NCc1ccc(C(=N)N)cc1` [compound 1118], the Ki in assay [5] is less than 500 nM.

Regarding `C[C@H](NC(=O)c1cc(-c2ccccc2)c[nH]1)C(=O)NCc1ccc(C(=N)N)cc1` [compound 1030], the Ki in assay [5] was less than 500 nM.

As to `C[C@H](NC(=O)[C@H]1C[C@H](c2ccccc2)CN1)C(=O)NCc1ccc(C(=N)N)cc1` [compound 1036], the Ki in assay [5] is less than 500 nM. This molecule also yielded an IC50 in assay [1] of less than 500 nM.

Take `COc1cc(C[C@@H]2CN[C@@H](C(=O)N[C@@H](C)C(=O)NCc3cc(Cl)ccc3-n3cnnn3)C2)cc(OC)c1` [compound 1419, (2R,4S)—N—((S)-1-((5-Chloro-2-(1H-tetrazol-1-yl)benzyl)amino)-1-oxopropan-2-yl)-4-(3,5-dimethoxybenzyl)pyrrolidine-2-carboxamide]: the inhibitory constant (Ki) in assay [5] is less than 500 nM. The “MASP-2 vs. thrombin selectivity” value in assay [2] is reported as “* (≥1.0 to <5.0-fold)”.

`C[C@H](NC(=O)[C@H](N)C1Cc2ccccc2C1)C(=O)NCc1ccc2nc(N)[nH]c2c1` [compound 1059] gave an inhibitory constant (Ki) in assay [5] of less than 500 nM. In addition, in assay [1], the half-inhibitory concentration (IC50) is 50 to 5000 nM.

`C[C@H](NC(=O)[C@H](N)CCc1cccc(Cl)c1)C(=O)NCc1ccc(C(=N)N)cc1` [compound 1081] returned an inhibitory constant (Ki) in assay [5] of less than 500 nM. The same molecule came in with an IC50 in assay [1] of 50 to 5000 nM.

As for `Cc1nc(N)ccc1CNC(=O)[C@H](C)NC(=O)[C@H]1C[C@@H](c2cccc(CN)c2)CN1` [compound 1291, (2R,4S)—N—((S)-1-(((6-Amino-2-methylpyridin-3-yl)methyl)amino)-1-oxopropan-2-yl)-4-(3-(aminomethyl)phenyl)pyrrolidine-2-carboxamide Dihydrochloride], in assay [5], the inhibition constant Ki lay within 10000 to 25000 nM.

`Cc1nc(N)ccc1CNC(=O)[C@H](C)NC(=O)[C@H]1C[C@H](Cc2ccc(C3CCC3)cc2)CN1` [compound 1379, (2R,4S)—N—((S)-1-(((6-Amino-2-methylpyridin-3-yl)methyl)amino)-1-oxopropan-2-yl)-4-(4-cyclobutylbenzyl)pyrrolidine-2-carboxamide] displayed an IC50 in assay [1] (mannan-coated plate) of 500 to 5000 nM. Also, the “MASP-2 vs. thrombin selectivity” value in assay [2] is recorded as “**** (≥100-fold)”.

In the case of `Cc1nc(N)ccc1CNC(=O)[C@H](C)NC(=O)[C@H]1C[C@H](Cc2ccc(-c3cccnc3)cc2)CN1` [compound 1357, (2R,4S)—N—((S)-1-(((6-Amino-2-methylpyridin-3-yl)methyl)amino)-1-oxopropan-2-yl)-4-(4-(pyridin-3-yl)benzyl)pyrrolidine-2-carboxamide Di-trifluoracetate salt], the half-maximal inhibitory concentration (IC50) in assay [1] (mannan-coated plate) is less than 50 nM. In assay [2], the “MASP-2 vs. thrombin selectivity” value is listed as “**** (≥100-fold)”.

As to `C[C@H](NC(=O)[C@H](N)CCc1ccccc1)C(=O)NCc1cccc(Cl)c1` [compound 1021], the Ki in assay [5] and in assay [3] was more than 25000 nM in each case. Moreover, the IC50 in assay [1] was more than 50000 nM.

`Cc1cc(Cl)cc(CNC(=O)[C@H](C)NC(=O)[C@H]2C[C@@H](c3ccccc3)CCN2)c1O` [compound 1365, (2R,4S)—N—((S)-1-((5-Chloro-2-hydroxy-3-methylbenzyl)amino)-1-oxopropan-2-yl)-4-phenylpiperidine-2-carboxamide] yielded an IC50 in assay [1] (mannan-coated plate) of less than 50 nM. For the same molecule, the “MASP-2 vs. thrombin selectivity” value in assay [2] was “**** (≥100-fold)”.

In turn, `C[C@H](NC(=O)[C@H](N)CCc1cccc(F)c1)C(=O)NCc1ccc(C(=N)N)cc1` [compound 1048] yielded an IC50 in assay [1] of 50 to 5000 nM.

On to `CC(=O)Nc1ccc(CCN[C@H](CCc2ccccc2)C(=O)N[C@@H](C)C(=O)NCc2ccc(N)nc2C)cc1` [compound 1368, (R)-2-((4-Acetamidophenethyl)amino)-N—((S)-1-(((6-amino-2-methylpyridin-3-yl)methyl)amino)-1-oxopropan-2-yl)-4-phenylbutanamide], for which the 50% inhibitory concentration (IC50) in assay [1] (mannan-coated plate) is 50 to 500 nM.
